Columns and labels:
[1] = test system: MCF-7; assay: MTT cell viability assay; assay type: cell-based, human
Method: (§1) The cell lines used were purchased from American Type Culture Collection (ATCC, Manassas, VA, USA). Human breast cancer cells MCF-7 and MDA-MB-231, human mammary epithelial cell line MCF-10A, and mouse BALB/3T3 embryonic fibroblasts were cultured as already described by some of us. The murine macrophage cell line RAW 264.7 was maintained in Dulbecco’s Modified Eagle’s Medium (DMEM) high glucose (4.5 g/L) supplemented with 10% Fetal Bovine Serum (FBS), 1% L-glutamine, and 100 units/mL of penicillin/streptomycin. The cell cultures were maintained at the temperature of 37 °C in a humidified atmosphere containing 5% CO2.
(§2) The 3-(4,5-dimethylthiazol-2-yl)-2,5-diphenyl-2H-tetrazolium bromide (MTT) assay (Sigma Aldrich (St. Louis, MO, USA)) was carried out to study the in vitro anticancer activities of the complexes, following the previously reported protocol. The cells were incubated for 72 h with different concentrations of the tested compounds (0.1, 1, 10, 25, 50, 100, and 500 µM) and the IC50 values were calculated from the percent (%) of control using the software GraphPad Prism 9 (GraphPad Software, La Jolla, CA, USA).

[2] = test system: MDA-MB-231; assay: MTT cell viability assay; assay type: cell-based, human
Method: as §1, §2

[3] = test system: human mammary epithelial cell line MCF-10A; assay: MTT assay, toxicity towards normal cells; assay type: cell-based; conditions: 72 h
Method: as §1, §2

[4] = test system: NO production in LPS-stimulated RAW 264.7 macrophages; assay: Griess assay, NO production; assay type: cell-based, murine; conditions: 25 µM, LPS 1 µg/mL, 24 h
Method: The Griess assay was performed using RAW 264.7 murine macrophages to study the anti-inflammatory activity in terms of NO production. RAW 264.7 cells were plated in the 48 multi-wells and, after 24 h, treated with the tested molecules (25 µM) and the lipopolysaccharide (LPS, Sigma Aldrich, Milan, Italy) at a final concentration of 1 µg/mL. LPS is able to induce inflammation by stimulating NO production in immune system cells such as macrophages. After 24 h, the cell medium Griess reagent (Sigma Aldrich, Milan, Italy) was mixed in with a ratio of 1:1. The Griess reagent allowed for the quantification of NO released by macrophages in the treatment medium. The mixture was left for 30 min under agitation and, subsequently, the absorbance at 540 nm was measured using a multiplate reader. The obtained absorbance allowed us to calculate the NO production % compared to the absorbance obtained for the positive control, in which the cells were treated with LPS.

[5] = ABTS radical scavenging assay; assay type: biochemical
Method: The radical scavenging properties of the complexes on a 2,20-azino-bis(3-ethylbenzothiazoline-6-sulfonate) radical cation (ABTS^+) were evaluated as previously described.
All the complexes were used at different concentrations (5, 10, 25, 50, and 100 µg/mL) and the ABTS radical scavenging activity, measured at 730 nm using a microplate reader, was expressed as inhibition percentages (%IABTS) compared tothe control, according to the following expression:(3) IABTS (%)=ABSCTRL−ABSsample/ABSCTRL∗100 where ABSCTRL and ABSsample are the absorbance at 730 nm in the control and in the presence of samples, respectively.
IC50 values were calculated from the %IABTS using GraphPad Prism 9 software (GraphPad Inc., San Diego, CA, USA). Trolox was employed as a positive control, while caffeine and theophylline were reference compounds.

[6] = DPPH radical scavenging assay; assay type: biochemical
Method: The radical scavenging properties of the complexes on the 1,1-diphenyl-2-picrylhydrazil (DPPH) radical were evaluated as previously described.
All the complexes were used at different concentrations (10, 25, 50, 100, and 200 µg/mL) and the DPPH radical scavenging activity, measured at 517 nm using a microplate reader, was expressed as inhibition percentages (%IDPPH) compared to the initial concentration of DPPH (control) according to the following expression:(2) IDPPH (%)=ABSCTRL−ABSsample/ABSCTRL∗100 where ABSCTRL and ABSsample are the absorbance at 517 nm in the control and in the presence of samples, respectively.
The obtained IDPPH percentages allowed us to calculate the IC50 values using Graph-Pad Prism 9 software (GraphPad Inc., San Diego, CA, USA). Trolox was employed as a positive control, while caffeine and theophylline were reference compounds.

[7] = test system: Escherichia coli (ATCC 25922); assay: MIC/MBC broth dilution; assay type: cell-based; conditions: for MIC: Escherichia coli, ATCC25922
Method: (§3) The bacterial strains used for MIC and MBC value determinations expressed as µg/mL by the broth dilution method, according to CLSI guidelines, were the following:
(§4) -4 Gram-negative: Escherichia coli (ATCC® 25922^TM) and Klebsiella pneumoniae (ATCC® 13883^TM);
(§5) Increasing concentrations of the complexes (50, 70, 100, 150, and 200 µg/mL) were incubated with bacteria plated in 96-well microplates at 37 °C overnight as already reported, and then bacterial growth was checked at a wavelength of 600 nm using a Multiskan spectrophotometer (model Multiskan Ex Microplate; Thermo Scientific, Nyon, Switzerland). MIC or MBC values were obtained by comparing cell density with a positive control (bacterial cells grown in LB medium were added with only the vehicle, DMSO). The results were representative of three independent experiments performed in triplicate. Ampicillin, Gentamicin, and Cephalosporin (Sigma Aldrich A9393) were used as the control for strain sensitivity.

[8] = test system: Klebsiella pneumoniae (ATCC 13883); assay: MIC/MBC broth dilution; assay type: cell-based; conditions: for MIC: Klebsiella pneumoniae, ATCC13883, read-out: M.I.C. K. pneumoniae
Method: as §3, §4, §5

[9] = test system: Enterococcus faecalis (ATCC 19433); assay: MIC/MBC broth dilution; assay type: cell-based; conditions: for MIC: Enterococcus faecalis, ATCC19433, read-out: M.I.C. E. faecalis
Method: as §3
(§6) -3 Gram-positive: Enterococcus faecalis (ATCC® 19433^TM), Staphylococcus aureus (ATCC® 23235^TM), and Staphylococcus epidermidis (ATCC® 14990™).
as §5

[10] = test system: Staphylococcus aureus (ATCC 23235); assay: MIC/MBC broth dilution; assay type: cell-based; conditions: for MIC: Staphylococcus aureus, ATCC23235, read-out: M.I.C. S. aureus
Method: as §3, §6, §5

[11] = test system: Staphylococcus epidermidis (ATCC 14990); assay: MIC/MBC broth dilution; assay type: cell-based; conditions: for MIC: Staphylococcus epidermidis, ATCC14990, read-out: M.I.C. S. epidermidis
Method: as §3, §6, §5

[12] = test system: Pseudomonas aeruginosa (ATCC 15442); assay: MIC/MBC broth dilution; assay type: cell-based
Method: as §3
as §5, with “The results were representative of three independent experiments performed in triplicate.” left out

[13] = test system: Salmonella typhimurium (ATCC 14028); assay: MIC/MBC broth dilution; assay type: cell-based
Method: as §3
as §5, with “The results were representative of three independent experiments performed in triplicate.” left out

[14] = molecular target: T1, human topoisomerase I (hTopoI) (Homo sapiens, UniProt P11387); assay: Human topoisomerase I relaxation assay; assay type: biochemical; conditions: supercoiled pHOT1 DNA
T1 construct: purchased TopoGEN, Port Orange, FL, USA
T1 sequence (P11387 1-765): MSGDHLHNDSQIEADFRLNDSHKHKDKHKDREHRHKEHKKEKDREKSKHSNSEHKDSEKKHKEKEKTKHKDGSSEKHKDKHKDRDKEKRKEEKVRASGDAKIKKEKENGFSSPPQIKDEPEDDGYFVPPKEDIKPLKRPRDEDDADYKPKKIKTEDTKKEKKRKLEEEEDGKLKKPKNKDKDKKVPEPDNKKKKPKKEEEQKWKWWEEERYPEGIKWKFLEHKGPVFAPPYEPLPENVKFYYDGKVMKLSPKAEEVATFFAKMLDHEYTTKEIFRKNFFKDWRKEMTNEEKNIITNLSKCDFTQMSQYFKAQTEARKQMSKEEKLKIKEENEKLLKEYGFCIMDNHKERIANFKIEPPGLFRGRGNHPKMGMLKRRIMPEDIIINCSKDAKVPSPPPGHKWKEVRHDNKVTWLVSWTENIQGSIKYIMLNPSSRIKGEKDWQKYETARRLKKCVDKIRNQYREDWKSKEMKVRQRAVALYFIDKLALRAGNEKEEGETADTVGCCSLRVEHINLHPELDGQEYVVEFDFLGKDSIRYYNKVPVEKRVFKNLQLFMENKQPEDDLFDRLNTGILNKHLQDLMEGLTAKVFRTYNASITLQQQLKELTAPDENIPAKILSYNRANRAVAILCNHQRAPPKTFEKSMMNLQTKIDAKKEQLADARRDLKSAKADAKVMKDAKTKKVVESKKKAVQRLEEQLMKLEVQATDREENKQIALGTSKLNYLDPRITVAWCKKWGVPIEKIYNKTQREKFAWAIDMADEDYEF
Method: The human topoisomerase I relaxation assay was performed as reported in [86]. Shortly, the recombinant human topo I (TopoGEN, Port Orange, FL, USA) was incubated with the super-coiled pHOT1, in the presence or not of the tested compounds, at the indicated concentrations. The reaction products were then allowed to separate through the agarose gel electrophoresis, and ethidium bromide-stained DNA was visualized under UV light.

SMILES	IC50 [5] [µM]	IC50 [6] [µM]	M.I.C. E. coli [7] [µg/mL]	M.I.C. K. pneumoniae [8] [µg/mL]	M.I.C. E. faecalis [9] [µg/mL]	M.I.C. S. aureus [10] [µg/mL]	M.I.C. S. epidermidis [11] [µg/mL]	IC50 ([1]; Homo sapiens, MCF7, 72 h) [µM]	IC50 ([2]; Homo sapiens, MDA-MB-231, 72 h) [µM]	IC50 ([3]; Homo sapiens, MCF-10A) [µM]	also measured
Cn1c(=O)c2c(n(C)[c]([Au-][I])[n+]2C2CCCCC2O)n(C)c1=O (stereo not drawn) [AuL2, 1,3,7-Trimethylxanthin-9-[cyclohexan-2-ol-8-ylidene]Au(I) Iodide]	155.5 ± 1	> 500	150	150	150	150	100	–	–	–	IC50 ([1]; 72 h): > 100 µM; IC50 ([2]; 72 h): > 100 µM; IC50 [3]: > 100 µM; Reduction in NO production [4]: ~12.64%; M.B.C. E. coli [7]: > 200 µg/mL; M.B.C. K. pneumoniae [8]: > 200 µg/mL; M.B.C. E. faecalis [9]: > 200 µg/mL; M.B.C. S. aureus [10]: > 200 µg/mL; M.B.C. S. epidermidis [11]: > 125 µg/mL; M.B.C. P. aeruginosa [12]: > 125 µg/mL; M.I.C. P. aeruginosa [12]: 100 µg/mL; M.B.C. S. typhimurium [13]: > 200 µg/mL; M.I.C. S. typhimurium [13]: 150 µg/mL
Cn1c(=O)c2c(ncn2C)n(C)c1=O [Caffeine, 1,3,7-trimethylxanthine, reference compound]	> 500	> 500	>200	>200	>200	>200	>200	> 500	> 500	> 500	Inhibition of hTopo I supercoil relaxing activity ([14]; 1 µM): failed; IC50 ABTS scavenging [5]: did not show any scavenging capacity; IC50 DPPH scavenging [6]: did not show any scavenging capacity; MIC [7]: > 200 µg/mL; MIC [8]: > 200 µg/mL; MIC [9]: > 200 µg/mL; MIC [10]: > 200 µg/mL; MIC [11]: > 200 µg/mL; M.I.C. P. aeruginosa [12]: >200 µg/mL; MIC ([12]; Pseudomonas aeruginosa, ATCC15442, read-out: M.I.C. P. aeruginosa): > 200 µg/mL
N.N.[Cl][Pt][Cl] [Cisplatin, reference compound]	–	–	–	–	–	–	–	–	–	–	IC50 ([1]; 72 h): 26.2 ± 1.1 µM; IC50 ([2]; 72 h): 32.2 ± 1 µM; IC50 [3]: 78.2 ± 1.2 µM; Inhibition of hTopo I supercoil relaxing activity ([14]; 50 µM): inhibited the hTopoI activity
Cn1c(=O)c2c(n(C)c1=O)[n+](C)cn2CC(O)c1ccccc1 (stereo not drawn) [P-L1, 9-[(2-Hydroxy-2-phenyl)ethyl]-1,3,7-trimethylxanthinium Iodide]	–	–	–	–	–	–	–	> 100	> 100	> 100	–
Cn1c(=O)c2c(n(C)c1=O)[n+](C)cn2C1CCCCC1O (stereo not drawn) [P-L2, 9-[Cyclohexan-2-ol]-1,3,7-trimethylxantinium Iodide]	–	–	–	–	–	–	–	> 100	> 100	> 100	–
Cn1c(=O)c2c(n(C)c1=O)[n+](C)cn2CCO [P-L3]	–	–	–	–	–	–	–	> 100	> 100	> 100	–
Cn1c(=O)c2[nH]cnc2n(C)c1=O [Theophylline, reference compound]	> 500	> 500	>200	>200	>200	>200	>200	> 500	> 500	> 500	IC50 ABTS scavenging [5]: did not show any scavenging capacity; IC50 DPPH scavenging [6]: did not show any scavenging capacity; MIC [7]: > 200 µg/mL; MIC [8]: > 200 µg/mL; MIC [9]: > 200 µg/mL; MIC [10]: > 200 µg/mL; MIC [11]: > 200 µg/mL
Cc1c(C)c2c(c(C)c1O)CCC(C)(C(=O)O)O2 (stereo not drawn) [Trolox, reference compound]	54.5 ± 0.9	47 ± 1.2	–	–	–	–	–	–	–	–	–

Reference: PMC10931745 (International Journal of Molecular Sciences, 2024)
